From patent US8846698B2, “Pyrrolo[2,3-d]pyrimidine tropomysin-related kinase inhibitors” (Pfizer Limited, priority 2011, dated 2014) come the findings set out here.

The target in the assay is TRKA (Homo sapiens (Human), UniProt P04629). The assay is described as follows: Isolated TRK enzyme assay (HTRF KinEASE-TK), TRKA. It is filed as biochemical. Particulars: read-out: Trka enzyme (IC50). For orientation: Time-resolved FRET reads energy transfer from a long-lived donor to a nearby acceptor.
Chain of TRKA (P04629 441-796): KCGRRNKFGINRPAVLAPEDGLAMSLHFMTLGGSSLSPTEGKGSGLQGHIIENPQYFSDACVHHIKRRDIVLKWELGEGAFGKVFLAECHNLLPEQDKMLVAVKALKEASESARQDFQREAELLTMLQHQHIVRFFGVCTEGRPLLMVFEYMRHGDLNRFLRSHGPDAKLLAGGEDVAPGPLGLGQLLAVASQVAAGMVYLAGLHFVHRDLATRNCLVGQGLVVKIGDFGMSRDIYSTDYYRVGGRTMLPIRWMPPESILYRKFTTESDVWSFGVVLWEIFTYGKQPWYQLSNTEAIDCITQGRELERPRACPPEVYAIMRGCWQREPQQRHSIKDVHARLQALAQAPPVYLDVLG
Broadly, the IC50 is the concentration that gives 50% inhibition. For `CC(C)n1cc(C(=O)c2cncc(NC(=O)c3c[nH]c4cnccc34)c2)c2cncnc21` [Example 421, 1H-Pyrrolo[2,3-c]pyridine-3-carboxylic acid [5-(7-isopropyl-7H-pyrrolo[2,3-d]pyrimidine-5-carbonyl)-pyridin-3-yl]amide], the IC50 was found to be 1730 nM. For the compound `Cc1cc(C(=O)Nc2cncc(C(=O)c3cn(C(C)C)c4ncncc34)c2)ccn1` [Example 422, N-[5-(7-Isopropyl-7H-pyrrolo[2,3-d]pyrimidine-5-carbonyl)-pyridin-3-yl]-2-methyl-isonicotinamide], the IC50 was found to be 451 nM.

As for `CC(C)n1cc(C(=O)c2cncc(NC(=O)c3ccc4nccn4c3)c2)c2cncnc21` [Example 423, Imidazo[1,2-a]pyridine-6-carboxylicacid [5-(7-isopropyl-7H-pyrrolo[2,3-d]pyrimidine-5-carbonyl)-pyridin-3-yl]amide], the IC50 amounted to 1330 nM. On to `CC(C)n1cc(C(=O)c2cncc(NC(=O)c3nc[nH]n3)c2)c2cncnc21` [Example 424, 1H-1,2,4-Triazole-3-carboxylic acid[5-(7-isopropyl-7H-pyrrolo[2,3-d]pyrimidine-5-carbonyl)-pyridin-3-yl]-amide], for which the IC50 was 4310 nM. `COc1ccc(C(=O)Nc2cncc(C(=O)c3cn(C(C)C)c4ncncc34)c2)nc1` [Example 425, 5-Methoxy-pyridine-2-carboxylic acid [5-(7-isopropyl-7H-pyrrolo[2,3-d]pyrimidine-5-carbonyl)-pyridin-3-yl]-amide]: the IC50 amounted to 796 nM. In the case of `CC(C)n1cc(C(=O)c2cncc(NC(=O)c3cnnc4ccccc34)c2)c2cncnc21` [Example 426, Cinnoline-4-carboxylic acid [5-(7-isopropyl-7H-pyrrolo[2,3-d]pyrimidine-5-carbonyl)-pyridin-3-yl]-amide], the IC50 is 228 nM. As to `CC(C)n1cc(C(=O)c2cncc(NC(=O)c3ccn4ncnc4c3)c2)c2cncnc21` [Example 427, [1,2,4]Triazolo[1,5-a]pyridine-7-carboxylic acid [5-(7-isopropyl-7H-pyrrolo[2,3-d]pyrimidine-5-carbonyl)-pyridin-3-yl]amide], the IC50 was determined as 93.4 nM. For the compound `CC(C)n1cc(C(=O)c2cncc(NC(=O)c3cc4ncccn4n3)c2)c2cncnc21` [Example 428, Pyrazolo[1,5-a]pyrimidine-2-carboxylic acid [5-(7-isopropyl-7H-pyrrolo[2,3-d]pyrimidine-5-carbonyl)-pyridin-3-yl]amide], the IC50 was found to be 960 nM. As for `CC(C)n1cc(C(=O)c2cncc(NC(=O)c3ccccn3)c2)c2cncnc21` [Example 429, Pyridine-2-carboxylic acid [5-(7-isopropyl-7H-pyrrolo[2,3-d]pyrimidine-5-carbonyl)-pyridin-3-yl]-amide], the IC50 stood at 2740 nM. On to `CC(C)n1cc(C(=O)c2cncc(NC(=O)c3cncc(Cl)c3)c2)c2cncnc21` [Example 430, 5-Chloro-N-[5-(7-isopropyl-7H-pyrrolo[2,3-d]pyrimidine-5-carbonyl)-pyridin-3-yl]-nicotinamide], for which the IC50 came out at 297 nM. Take `CC(C)n1cc(C(=O)c2cncc(NC(=O)c3cc4occc4[nH]3)c2)c2cncnc21` [Example 431, 4H-Furo[3,2-b]pyrrole-5-carboxylic acid [5-(7-isopropyl-7H-pyrrolo1[2,3-d]pyrimidine-5-carbonyl)-pyridin-3-yl]-amide]: the IC50 is 235 nM.

With `CC(C)n1cc(C(=O)c2cncc(NC(=O)c3ccn4ccnc4c3)c2)c2cncnc21` [Example 432, Imidazo[1,2-a]pyridine-7-carboxylicacid [5-(7-isopropyl-7H-pyrrolo[2,3-d]pyrimidine-5-carbonyl)-pyridin-3-yl]amide], the IC50 is 2790 nM. The figure for `CCn1cc(C(=O)Nc2cncc(C(=O)c3cn(C(C)C)c4ncncc34)c2)cn1` [Example 433, 1-Ethyl-1H-pyrazole-4-carboxylic acid [5-(7-isopropyl-7H-pyrrolo[2,3-d]pyrimidine-5-carbonyl)-pyridin-3-yl]-amide] is 246 nM; for `CC(C)n1cnc(C(=O)Nc2cncc(C(=O)c3cn(C(C)C)c4ncncc34)c2)c1` [Example 434, 1-Isopropyl-1H-imidazole-4-carboxylic acid [5-(7-isopropyl-7H-pyrrolo[2,3-d]pyrimidine-5-carbonyl)-pyridin-3-yl]-amide] it is 99.9 nM.

`COc1nc(C(=O)Nc2cncc(C(=O)c3cn(C(C)C)c4ncncc34)c2)cn2ccnc12` [Example 435, 8-Methoxy-imidazo[1,2-a]pyrazine-6-carboxylic acid [5-(7-isopropyl-7H-pyrrolo[2,3-d]pyrimidine-5-carbonyl)-pyridin-3-yl]amide]: the IC50 was 5490 nM. Consider `CC(C)n1cc(C(=O)c2cncc(NC(=O)c3cnc4[nH]ccc4c3)c2)c2cncnc21` [Example 436, 1H-Pyrrolo[2,3-b]pyridine-5-carboxylic acid [5-(7-isopropyl-7H-pyrrolo[2,3-d]pyrimidine-5-carbonyl)-pyridin-3-yl]amide], for which the IC50 amounted to 205 nM. Regarding `CCCc1cc(C(=O)Nc2cncc(C(=O)c3cn(C(C)C)c4ncncc34)c2)n(C)n1` [Example 437, 2-Methyl-5-propyl-2H-pyrazole-3-carboxylic acid [5-(7-isopropyl-7H-pyrrolo[2,3-d]pyrimidine-5-carbonyl)-pyridin-3-yl]amide], the IC50 came out at 107 nM. Turning to `CC(C)c1csc(C(=O)Nc2cncc(C(=O)c3cn(C(C)C)c4ncncc34)c2)n1` [Example 438, 4-Isopropyl-thiazole-2-carboxylic acid [5-(7-isopropyl-7H-pyrrolo[2,3-d]pyrimidine-5-carbonyl)-pyridin-3-yl]-amide], the IC50 worked out at 31.2 nM. `Cc1coc2cnc(C(=O)Nc3cncc(C(=O)c4cn(C(C)C)c5ncncc45)c3)cc12` [Example 439, 3-Methyl-furo[2,3-c]pyridine-5-carboxylic acid [5-(7-isopropyl-7H-pyrrolo[2,3-d]pyrimidine-5-carbonyl)-pyridin-3-yl]-amide]: the IC50 was found to be 22.5 nM. For the compound `Cc1cccc(C(=O)Nc2cncc(C(=O)c3cn(C(C)C)c4ncncc34)c2)n1` [Example 440, 6-Methyl-pyridine-2-carboxylic acid[5-(7-isopropyl-7H-pyrrolo[2,3-d]pyrimidine-5-carbonyl)-pyridin-3-yl]-amide], the IC50 is 676 nM. With `CC(C)n1cc(C(=O)c2cncc(NC(=O)c3c(C(F)(F)F)nn(C)c3Cl)c2)c2cncnc21` [Example 441, 5-Chloro-1-methyl-3-trifluoromethyl-1H-pyrazole-4-carboxylic acid [5-(7-isopropyl-7H-pyrrolo[2,3-d]pyrimidine-5-carbonyl)-pyridin-3-yl]-amide], the IC50 is 8390 nM. The figure for `COc1ccc2[nH]c(C(=O)Nc3cncc(C(=O)c4cn(C(C)C)c5ncncc45)c3)nc2c1` [Example 442, 5-Methoxy-1H-benzimidazole-2-carboxylic acid [5-(7-isopropyl-7H-pyrrolo[2,3-d]pyrimidine-5-carbonyl)-pyridin-3-yl]amide] is 36.6 nM.

For the compound `Cc1c(Cl)c(C(=O)Nc2cncc(C(=O)c3cn(C(C)C)c4ncncc34)c2)nn1C` [Example 443, 4-Chloro-1,5-dimethyl-1H-pyrazole-3-carboxylic acid [5-(7-isopropyl-7H-pyrrolo[2,3-d]pyrimidine-5-carbonyl)-pyridin-3-yl]amide], the IC50 was 47.7 nM. As for `CC(C)n1cc(C(=O)c2cncc(NC(=O)c3nccc4[nH]ccc34)c2)c2cncnc21` [Example 444, 1H-Pyrrolo[3,2-c]pyridine-4-carboxylic acid [5-(7-isopropyl-7H-pyrrolo[2,3-d]pyrimidine-5-carbonyl)-pyridin-3-yl]amide], the IC50 amounted to 496 nM. On to `CCc1ccnc(C(=O)Nc2cncc(C(=O)c3cn(C(C)C)c4ncncc34)c2)c1` [Example 445, 4-Ethyl-pyridine-2-carboxylic acid [5-(7-isopropyl-7H-pyrrolo[2,3-d]pyrimidine-5-carbonyl)-pyridin-3-yl]-amide], for which the IC50 is 5.51 nM.

Take `CC(C)n1cc(C(=O)c2cncc(NC(=O)c3cnc4c(c3)OCCO4)c2)c2cncnc21` [Example 446, 2,3-Dihydro-1,4-dioxino[2,3-b]pyridine-7-carboxylic acid [5-(7-isopropyl-7H-pyrrolo[2,3-d]pyrimidine-5-carbonyl)-pyridin-3-yl]-amide]: the IC50 turned out to be 812 nM. Take `CC(C)n1cc(C(=O)c2cncc(NC(=O)c3ccc4[nH]ccc4n3)c2)c2cncnc21` [Example 447, 1H-Pyrrolo[3,2-b]pyridine-5-carboxylic acid [5-(7-isopropyl-7H-pyrrolo[2,3-d]pyrimidine-5-carbonyl)-pyridin-3-yl]amide]: the IC50 was 919 nM. The figure for `CC(C)n1cc(C(=O)c2cncc(NC(=O)c3ccn4nccc4c3)c2)c2cncnc21` [Example 448, Pyrazolo[1,5-a]pyridine-5-carboxylic acid [5-(7-isopropyl-7H-pyrrolo[2,3-d]pyrimidine-5-carbonyl)-pyridin-3-yl]-amide] is 272 nM; for `COc1ccc2ncc(C(=O)Nc3cncc(C(=O)c4cn(C(C)C)c5ncncc45)c3)cc2c1` [Example 449, 6-Methoxy-quinoline-3-carboxylic acid [5-(7-isopropyl-7H-pyrrolo[2,3-d]pyrimidine-5-carbonyl)-pyridin-3-yl]-amide] it is 155 nM; for `Cc1cc(C(=O)Nc2cncc(C(=O)c3cn(C(C)C)c4ncncc34)c2)n(CC(F)(F)F)n1` [Example 450, 5-Methyl-2-(2,2,2-trifluoro-ethyl)-2H-pyrazole-3-carboxylic acid [5-(7-isopropyl-7H-pyrrolo[2,3-d]pyrimidine-5-carbonyl)-pyridin-3-yl]-amide] it is 3150 nM. On to `CC(C)n1cc(C(=O)c2cncc(NC(=O)c3cnccc3C(F)(F)F)c2)c2cncnc21` [Example 451, N-[5-(7-Isopropyl-7H-pyrrolo[2,3-d]pyrimidine-5-carbonyl)-pyridin-3-yl]-4-trifluoromethyl-nicotinamide], for which the IC50 amounted to 7170 nM. Under `CC(C)n1cc(C(=O)c2cncc(NC(=O)c3cnn(CCC#N)c3)c2)c2cncnc21` [Example 452, 1-(2-Cyano-ethyl)-1H-pyrazole-4-carboxylic acid [5-(7-isopropyl-7H-pyrrolo[2,3-d]pyrimidine-5-carbonyl)-pyridin-3-yl]amide] stands 542 nM.
